# What was measured:
# [1] = tested on: cones of cone-enriched cultures from chicken embryo; experiment: Cone survival in cone-enriched cultures from chicken embryo (live/dead assay); type: cell-based
# Text: FIG. 1: Identification of an extract from Uvaria chamae protecting cones by high content screening of 800 extracts from 200 medicinal plants using cone-enriched cultures from chicken embryo. A. The set represents a total of 12,800 tests. a: methanol polyamide, b: ethyl acetate, c: depleted ethyl acetate, d: depleted methanol. The figure gives an overview of the screening. […] C. Chromatogram of the fractionation by HPLC of Uvaria chamae the fraction Ucac3. The eight fractions (Ucac3F 1-8) are indicated by grey/white shading. D. Test of the protective activity on cones of the Ucac3 fractions 1-8. E. Purification scheme. F. Chromatographic profile of purified Geralexin. G. Structure of Geralexin (C37H66O7).
# (§1) The therapeutic molecule, the acetogenin Geralexin (C37H66O7) (FIG. 1G) was purified to homogeneity from 100 kg of leaves of Uvaria chamae, a medicinal plant. […] We have fractionated Uvaria chamae extract by 7 steps of chromatography and characterized the molecule that we called Geralexin (FIG. 1E). […] Uc acts as RdCVF by stimulating aerobic glycolysis. […] The hydrophobicity of acetogenins allows their penetration into cones where Geralexin could bind and activate aerobic glycolysis (FIG. 2F-H). We search for genes encoding glycolytic enzymes with an expression profile indicating possible function in photoreceptors in our own web database KBaSS. […] PFKFB2 is a bifunctional protein with a N-terminal kinase domain that converts fructose 6 phosphate (F6P) into fructose 2,6 biphosphate (F26BP), an allosteric activator of phosphofructokinase (PFK), which catalyzes the rate-limiting step of glycolysis. […] We have analyzed the metabolome of the cone-enriched cultures exposed to Uc with the platform MetaToul (Toulouse). […] Our hypothesis is that Geralexin could be a treatment, alone or in addition to other interventions for dry AMD by preventing cone outer segment shortening and maintaining central vision.
# [2] = tested on: cones of rd1 retinal explants; experiment: Cone protection on cultured retinal explants of the rd1 mouse; type: cell-based
# glucose uptake by cones = experiment: Uptake of NBDG (fluorescent deoxyglucose derivative) in cone-enriched cultured cells; type: cell-based, chicken
# Protocol: FIG. 2: Geralexin protects cones by stimulating aerobic glycolysis. A. Analysis of the effect of cone cell morphology in cone-enriched cultures by Geralexin (UcaC3F8f3). Cells are labeled with calcein AM. […] C. […] G. Comparative analysis of the protection of Geralexin (Uc: G3) on cone-enriched cultures in 15 versus 30 mM glucose. H. Ratio Geralexin+/no Geralexin.
# The therapeutic molecule, the acetogenin Geralexin (C37H66O7) (FIG. 1G) was purified to homogeneity from 100 kg of leaves of Uvaria chamae, a medicinal plant. […] We have fractionated Uvaria chamae extract by 7 steps of chromatography and characterized the molecule that we called Geralexin (FIG. 1E). […] Uc acts as RdCVF by stimulating aerobic glycolysis. […] The hydrophobicity of acetogenins allows their penetration into cones where Geralexin could bind and activate aerobic glycolysis (FIG. 2F-H). We search for genes encoding glycolytic enzymes with an expression profile indicating possible function in photoreceptors in our own web database KBaSS. […] PFKFB2 is a bifunctional protein with a N-terminal kinase domain that converts fructose 6 phosphate (F6P) into fructose 2,6 biphosphate (F26BP), an allosteric activator of phosphofructokinase (PFK), which catalyzes the rate-limiting step of glycolysis. […] We have analyzed the metabolome of the cone-enriched cultures exposed to Uc with the platform MetaToul (Toulouse). […]
# PFKFB2 mRNA = PFKFB2 mRNA expression by cones of cone-enriched culture, quantitative RT-PCR; type: cell-based, chicken
# Text: (§2) G6P: glucose-6-phosphate, F6P; fructose-6-phosphate, F16BP: fructose-1,6-biphosphate, G3P: glycerol-3-phosphate, 2/3PG: 2- and 3-phosphoglycerate and PEP: phosphoenol pyruvate,
# as §1
# [3] = tested on: phosphofructokinase (PFK); experiment: Metabolomic analysis of cone-enriched cultures (MetaToul platform); type: cell-based, chicken; conditions: by metabolomic analysis
# Text: as §2, §1
smiles,measurement,setting,value
CCCCCCCCCC1OC1C1CCC(/C=C\C=C\CCC(O)C(O)CCC(O)CCCCCCCCCCC(=O)O)O1 (stereo not shown) [Geralexin],protective effect on cones after silencing BSG1,[1]; cone-enriched culture after electroporation of a micro RNA targeting BSG1,Absence of reduction of the protective effect
same,cone survival / protection of cones,[1]; cone-enriched cultures from chicken embryo,stimulates aerobic glycolysis and cone survival
same,effect of oxamate on the cone survival effect,"[1]; cone-enriched cultures, with lactate dehydrogenase inhibitor oxamate",Reduction of the protection of cone
same,protection of cones / cone survival,[2],Protection of cones
same,glucose (NBDG) uptake by cones,glucose uptake by cones,Increase of the uptake of NBDG
same,expression of PFKFB2 mRNA,PFKFB2 mRNA,Increase expression of PFKFB2 mRNA
same,phosphofructokinase (PFK) activity,[3],Increase phosphofructokinase (PFK) activity

# Source: patent publication US20250084069A1, “GERALEXIN AND USES THEREOF FOR THE TREATMENT OF RETINAL DEGENERATIVE DISEASES” (INSTITUT NATIONAL DE LA SANTÉ ET DE LA RECHERCHE MÉDICALE, priority 2022, published 2025)
